Targets include Carbonic anhydrase 9 (Homo sapiens, UniProt Q16790); Carbonic anhydrase 1 (Homo sapiens, UniProt P00915); Carbonic anhydrase 2 (Homo sapiens, UniProt P00918); Carbonic anhydrase 12 (Homo sapiens, UniProt O43570).

This is an account of results in ChEMBL document CHEMBL6096713, “Tetrazole Is a Novel Zinc Binder Chemotype for Carbonic Anhydrase Inhibition” (ACS Med Chem Lett, 2025).

Structures are written as SMILES.

Carbonic anhydrase 1, sequence (P00915 whole entry): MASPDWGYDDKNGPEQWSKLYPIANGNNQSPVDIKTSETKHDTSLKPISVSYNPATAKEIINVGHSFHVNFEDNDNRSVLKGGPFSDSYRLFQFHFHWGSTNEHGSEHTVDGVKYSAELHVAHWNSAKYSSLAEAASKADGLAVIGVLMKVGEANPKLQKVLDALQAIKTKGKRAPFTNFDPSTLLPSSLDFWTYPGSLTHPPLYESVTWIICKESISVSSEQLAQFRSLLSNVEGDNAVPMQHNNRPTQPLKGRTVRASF
Carbonic anhydrase 12, sequence (O43570 whole entry): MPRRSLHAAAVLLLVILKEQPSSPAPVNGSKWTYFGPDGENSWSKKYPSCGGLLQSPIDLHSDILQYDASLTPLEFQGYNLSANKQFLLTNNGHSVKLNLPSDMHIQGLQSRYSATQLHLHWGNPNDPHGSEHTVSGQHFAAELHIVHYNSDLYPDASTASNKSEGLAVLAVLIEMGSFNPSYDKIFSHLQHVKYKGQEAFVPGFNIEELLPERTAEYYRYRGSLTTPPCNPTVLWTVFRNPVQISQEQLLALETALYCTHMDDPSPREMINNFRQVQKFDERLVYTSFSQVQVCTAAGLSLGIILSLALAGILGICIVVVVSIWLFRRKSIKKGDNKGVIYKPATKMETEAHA
Description for Carbonic anhydrase 12: Inhibition of human recombinant carbonic anhydrase 12 assessed as inhibition constant incubated for 15 mins by stopped-flow technique
Description for Carbonic anhydrase 2: Inhibition of human recombinant carbonic anhydrase 2 assessed as inhibition constant incubated for 15 mins by stopped-flow technique
Description for Carbonic anhydrase 9: Inhibition of human recombinant carbonic anhydrase 9 assessed as inhibition constant incubated for 15 mins by stopped-flow technique

`O=C(O)Cc1nnn[nH]1`: the Ki (usually the equilibrium dissociation constant of an inhibitor or competing ligand from its target) on Carbonic anhydrase 9 came out at 7.68 µM; on Carbonic anhydrase 1 it was 4.21 µM; at Carbonic anhydrase 2, 5.97 µM; at Carbonic anhydrase 12, 8.21 µM.
